pEC50, pIC50: −log10 of the molar value.

Usually pIC50 stands for the negative decadic logarithm of the IC50, by convention in mol/L. A word on the pEC50: it is −log10 of the EC50, conventionally taken in molar units.

The target in assay [1] is T1, Progesterone receptor (Homo sapiens, UniProt P06401).
T1 sequence (P06401 whole entry): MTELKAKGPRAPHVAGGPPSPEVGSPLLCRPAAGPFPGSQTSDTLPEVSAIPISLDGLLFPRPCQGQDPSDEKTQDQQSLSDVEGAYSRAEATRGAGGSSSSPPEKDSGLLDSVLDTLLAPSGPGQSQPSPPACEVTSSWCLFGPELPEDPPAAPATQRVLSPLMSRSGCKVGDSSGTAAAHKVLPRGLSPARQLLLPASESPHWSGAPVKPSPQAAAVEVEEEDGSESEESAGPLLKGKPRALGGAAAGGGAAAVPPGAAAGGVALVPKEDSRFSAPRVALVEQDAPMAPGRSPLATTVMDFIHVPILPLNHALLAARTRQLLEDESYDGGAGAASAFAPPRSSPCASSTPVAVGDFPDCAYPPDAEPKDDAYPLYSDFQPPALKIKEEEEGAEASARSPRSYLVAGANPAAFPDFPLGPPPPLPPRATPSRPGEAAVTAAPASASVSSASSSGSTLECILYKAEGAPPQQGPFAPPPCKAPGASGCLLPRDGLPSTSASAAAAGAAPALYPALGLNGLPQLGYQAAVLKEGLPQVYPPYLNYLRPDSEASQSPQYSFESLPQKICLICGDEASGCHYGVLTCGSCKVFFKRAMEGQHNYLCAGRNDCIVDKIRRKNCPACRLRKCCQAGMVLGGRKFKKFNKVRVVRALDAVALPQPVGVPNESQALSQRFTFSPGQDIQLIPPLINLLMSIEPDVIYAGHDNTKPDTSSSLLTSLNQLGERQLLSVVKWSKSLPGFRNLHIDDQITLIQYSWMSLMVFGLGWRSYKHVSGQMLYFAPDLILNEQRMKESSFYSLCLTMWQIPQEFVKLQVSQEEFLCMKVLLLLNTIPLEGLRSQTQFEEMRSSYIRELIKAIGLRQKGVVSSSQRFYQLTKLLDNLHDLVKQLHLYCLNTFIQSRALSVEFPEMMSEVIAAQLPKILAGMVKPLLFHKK
The assay can be described thus: Inhibition of progesterone receptor in human T47D cells assessed as progesteron-induced alkaline phosphatase activity. Format: cell-based.

Assay [2] concerns the target T1, Progesterone receptor. The assay can be described thus: Agonist activity at progesterone receptor in human T47D cells assessed as alkaline phosphatase activity. It counts as functional, cell-based.

With `CC1(C)CC(=O)c2ccc(-c3ccc(Cl)c(Cl)c3)cc21`, on Progesterone receptor [1], the negative-log IC50 (pIC50) is 7.10.

With `Cn1c(C#N)ccc1-c1ccc2c(c1)C(C)(C)CC2(C)O` (configuration not stated), on Progesterone receptor [2], the negative logarithm of the EC50 (pEC50) is 9.00.

For `CC1C/C(=N/O)c2ccc(-c3ccc(C#N)n3C)cc21` (configuration not stated), on Progesterone receptor [2], the negative logarithm of the EC50 (pEC50) was < 5.52. Besides, the negative-log IC50 (pIC50) at Progesterone receptor [1] is 7.19.

On to `CCC1(O)CC(C)(C)c2cc(-c3ccc(C#N)n3C)ccc21` (configuration not stated), for which the pEC50 on Progesterone receptor [2] is 8.70.

For the molecule `Cn1c(C#N)ccc1-c1ccc2c(c1)CC/C2=N/O`, at Progesterone receptor [2], the pEC50 is < 5.52. For the same molecule, the pIC50 at Progesterone receptor [1] is 6.88.

Consider `Cc1cccc(-c2ccc3c(c2)C(C)(C)C/C3=N\O)c1`, for which the negative-log IC50 (pIC50) at Progesterone receptor [1] is 6.50.

Regarding `Cn1c(C#N)ccc1-c1ccc2c(c1)C(C)(C)CC2O` (configuration not stated), the negative-log EC50 (pEC50) on Progesterone receptor [2] is 7.72.

On to `Cn1c(C#N)ccc1-c1ccc2c(c1)CCC2O` (configuration not stated), for which the pEC50 on Progesterone receptor [2] is < 5.52. For the same molecule, the negative-log IC50 (pIC50) at Progesterone receptor [1] is 8.00.

For `Cn1c(C#N)ccc1-c1ccc2c(c1)C(C)(C)C/C2=N/O`, the pEC50 on Progesterone receptor [2] is < 5.52. Also, the pIC50 at Progesterone receptor [1] is 7.85.

As to `CC1(C)C/C(=N\O)c2ccc(-c3cccc(Cl)c3)cc21`, the negative logarithm of the IC50 (pIC50) at Progesterone receptor [1] is 6.31.

With `CC1(C)CC(=O)c2ccc(-c3cccc(C#N)c3)cc21`, the negative logarithm of the IC50 (pIC50) on Progesterone receptor [1] was 6.71.

`CC1(C)C/C(=N\O)c2ccc(-c3cccc(C#N)c3)cc21`: at Progesterone receptor [1], the pIC50 was 6.50.

For the molecule `Cn1c(C#N)ccc1-c1ccc2c(c1)CCC2=O`, the negative-log EC50 (pEC50) on Progesterone receptor [2] is < 5.52. On Progesterone receptor [1], the pIC50 was 7.47.

`C#CCC1(O)CC(C)(C)c2cc(-c3ccc(C#N)n3C)ccc21` (configuration not stated): the negative logarithm of the EC50 (pEC50) on Progesterone receptor [2] was < 5.52. The pIC50 on Progesterone receptor [1] was 8.52.

For the molecule `CC1CC(O)c2ccc(-c3ccc(C#N)n3C)cc21` (configuration not stated), the pEC50 at Progesterone receptor [2] was < 5.52. In addition, the pIC50 on Progesterone receptor [1] is 7.74.

For the origin of these results see ChEMBL document CHEMBL1154669, “5-Aryl indanones and derivatives as non-steroidal progesterone receptor modulators” (Bioorg Med Chem Lett, 2009).
